In ChEMBL document CHEMBL5038620, “Discovery of a First-in-Class Inhibitor of the Histone Methyltransferase SETD2 Suitable for Preclinical Studies” (ACS Med Chem Lett, 2021):

How the values were obtained:
[1] = Terminal half life in CD-1 mouse at 1 mg/kg, iv by LC-MS/MS analysis; type: ADME, organism-based; conditions: in vivo, read-out: beta t1/2 (converted)
[2] = Volume of distribution in CD-1 mouse at 1 mg/kg, iv by LC-MS/MS analysis; type: ADME, organism-based; conditions: in vivo
[3] = Clearance in CD-1 mouse at 1 mg/kg, iv by LC-MS/MS analysis; type: ADME, organism-based; conditions: in vivo
[4] = Stability in human hepatocytes assessed as intrinsic clearance measured upto 120 minutes by LC/MS/MS analysis; type: ADME, cell-based, Hepatocyte; conditions: time >=60 min, read-out: CLH
[5] = Stability in mouse hepatocytes assessed as intrinsic clearance measured upto 60 minutes by LC/MS/MS analysis; type: ADME, cell-based, Hepatocyte; conditions: read-out: CLH
[6] = Apparent permeability across apical to basal membrane in human Caco-2 cells measured after 2 hrs by LC-MS/MS analysis; type: ADME, cell-based

SMILES	half-life [1]	Vd [2]	clearance [3]	CLint scaled [4]	CLint scaled [5]	Papp A→B at 2 h [6]
CC(=O)N(C)C1CCN(c2cc(F)cc(NC(=O)c3cc4c(F)ccc(C)c4[nH]3)c2)C1 (centres undefined)	42 min	1.04 L/kg	24.2 mL/min/kg	–	–	–
CC.Cc1ccc(F)c2cc(C(=O)N[C@@H]3CCC[C@H](N4CC[C@@H](N(C)S(C)(=O)=O)C4)C3)[nH]c12	–	–	–	21.1 mL/min/kg	235 mL/min/kg	–
Cc1ccc(F)c2cc(C(=O)N[C@@H]3CCC[C@H](N4CC[C@H](N(C)S(C)(=O)=O)C4)C3)[nH]c12	42 min	1.04 L/kg	24.2 mL/min/kg	–	–	3.2 ×10⁻⁶ cm/s
